pIC50: −log10 of the molar value.
What was measured:
[1] = target: Ribosomal protein S6 kinase beta-1 (Homo sapiens) (UniProt P23443); experiment: Percent residual S6K1 activity in the presence of 10uM inhibitor
[2] = target: RAC-alpha serine/threonine-protein kinase (Homo sapiens) (UniProt P31749); experiment: Percent residual PKBalpha activity in the presence of 10uM inhibitor
[3] = target: Ribosomal protein S6 kinase alpha-5 (Homo sapiens) (UniProt O75582); experiment: Percent residual MSK1 activity in the presence of 10uM inhibitor
Sequence of Ribosomal protein S6 kinase alpha-5 (Homo sapiens) (O75582 whole entry, looked up): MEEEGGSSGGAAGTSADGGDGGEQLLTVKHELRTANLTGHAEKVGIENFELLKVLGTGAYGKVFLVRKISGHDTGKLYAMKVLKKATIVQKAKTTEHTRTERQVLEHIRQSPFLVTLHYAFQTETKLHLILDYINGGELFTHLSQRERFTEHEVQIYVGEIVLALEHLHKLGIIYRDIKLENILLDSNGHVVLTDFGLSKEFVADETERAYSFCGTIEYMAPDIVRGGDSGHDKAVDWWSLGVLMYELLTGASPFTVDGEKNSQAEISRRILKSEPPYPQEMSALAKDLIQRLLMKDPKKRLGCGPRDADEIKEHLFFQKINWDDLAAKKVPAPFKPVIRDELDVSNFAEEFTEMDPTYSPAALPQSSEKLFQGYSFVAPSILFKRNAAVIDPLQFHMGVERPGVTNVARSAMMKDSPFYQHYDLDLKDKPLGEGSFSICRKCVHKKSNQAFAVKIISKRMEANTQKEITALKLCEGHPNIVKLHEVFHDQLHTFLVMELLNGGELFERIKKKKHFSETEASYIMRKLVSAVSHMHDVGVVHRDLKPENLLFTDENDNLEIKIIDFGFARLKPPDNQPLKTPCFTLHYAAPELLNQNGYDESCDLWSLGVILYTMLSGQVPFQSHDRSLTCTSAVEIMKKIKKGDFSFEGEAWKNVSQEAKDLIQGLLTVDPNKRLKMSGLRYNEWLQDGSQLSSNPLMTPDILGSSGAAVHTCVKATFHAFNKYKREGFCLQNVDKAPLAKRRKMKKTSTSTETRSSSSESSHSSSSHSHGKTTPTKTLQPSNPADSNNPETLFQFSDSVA

[4] = target: 5'-AMP-activated protein kinase catalytic subunit alpha-2 (Homo sapiens) (UniProt P54646); experiment: Percent residual AMPK activity in the presence of 10uM inhibitor
Sequence of 5'-AMP-activated protein kinase catalytic subunit alpha-2 (Homo sapiens) (P54646 whole entry, looked up): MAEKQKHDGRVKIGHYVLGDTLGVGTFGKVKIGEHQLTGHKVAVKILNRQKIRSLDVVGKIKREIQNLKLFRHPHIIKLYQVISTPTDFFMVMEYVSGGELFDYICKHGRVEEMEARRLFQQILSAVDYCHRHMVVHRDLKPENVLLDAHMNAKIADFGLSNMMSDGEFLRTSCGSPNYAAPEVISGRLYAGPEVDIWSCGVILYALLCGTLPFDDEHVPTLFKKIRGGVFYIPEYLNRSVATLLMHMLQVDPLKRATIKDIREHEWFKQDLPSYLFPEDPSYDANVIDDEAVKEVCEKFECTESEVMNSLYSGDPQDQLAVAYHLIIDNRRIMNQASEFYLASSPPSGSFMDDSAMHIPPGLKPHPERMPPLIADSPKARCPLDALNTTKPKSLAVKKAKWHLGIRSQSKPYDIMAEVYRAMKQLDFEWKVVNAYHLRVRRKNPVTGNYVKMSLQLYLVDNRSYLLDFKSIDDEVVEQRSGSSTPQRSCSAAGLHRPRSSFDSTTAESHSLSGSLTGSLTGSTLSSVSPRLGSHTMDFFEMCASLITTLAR

[5] = target: Cyclin-dependent kinase 2 (Homo sapiens) (UniProt P24941); experiment: Percent residual CDK2-cyclinA activity in the presence of 10uM inhibitor
[6] = target: Rho-associated protein kinase 2 (Homo sapiens) (UniProt O75116); experiment: Percent residual ROCK-II activity in the presence of 10uM inhibitor
Sequence of Rho-associated protein kinase 2 (Homo sapiens) (O75116 whole entry, looked up): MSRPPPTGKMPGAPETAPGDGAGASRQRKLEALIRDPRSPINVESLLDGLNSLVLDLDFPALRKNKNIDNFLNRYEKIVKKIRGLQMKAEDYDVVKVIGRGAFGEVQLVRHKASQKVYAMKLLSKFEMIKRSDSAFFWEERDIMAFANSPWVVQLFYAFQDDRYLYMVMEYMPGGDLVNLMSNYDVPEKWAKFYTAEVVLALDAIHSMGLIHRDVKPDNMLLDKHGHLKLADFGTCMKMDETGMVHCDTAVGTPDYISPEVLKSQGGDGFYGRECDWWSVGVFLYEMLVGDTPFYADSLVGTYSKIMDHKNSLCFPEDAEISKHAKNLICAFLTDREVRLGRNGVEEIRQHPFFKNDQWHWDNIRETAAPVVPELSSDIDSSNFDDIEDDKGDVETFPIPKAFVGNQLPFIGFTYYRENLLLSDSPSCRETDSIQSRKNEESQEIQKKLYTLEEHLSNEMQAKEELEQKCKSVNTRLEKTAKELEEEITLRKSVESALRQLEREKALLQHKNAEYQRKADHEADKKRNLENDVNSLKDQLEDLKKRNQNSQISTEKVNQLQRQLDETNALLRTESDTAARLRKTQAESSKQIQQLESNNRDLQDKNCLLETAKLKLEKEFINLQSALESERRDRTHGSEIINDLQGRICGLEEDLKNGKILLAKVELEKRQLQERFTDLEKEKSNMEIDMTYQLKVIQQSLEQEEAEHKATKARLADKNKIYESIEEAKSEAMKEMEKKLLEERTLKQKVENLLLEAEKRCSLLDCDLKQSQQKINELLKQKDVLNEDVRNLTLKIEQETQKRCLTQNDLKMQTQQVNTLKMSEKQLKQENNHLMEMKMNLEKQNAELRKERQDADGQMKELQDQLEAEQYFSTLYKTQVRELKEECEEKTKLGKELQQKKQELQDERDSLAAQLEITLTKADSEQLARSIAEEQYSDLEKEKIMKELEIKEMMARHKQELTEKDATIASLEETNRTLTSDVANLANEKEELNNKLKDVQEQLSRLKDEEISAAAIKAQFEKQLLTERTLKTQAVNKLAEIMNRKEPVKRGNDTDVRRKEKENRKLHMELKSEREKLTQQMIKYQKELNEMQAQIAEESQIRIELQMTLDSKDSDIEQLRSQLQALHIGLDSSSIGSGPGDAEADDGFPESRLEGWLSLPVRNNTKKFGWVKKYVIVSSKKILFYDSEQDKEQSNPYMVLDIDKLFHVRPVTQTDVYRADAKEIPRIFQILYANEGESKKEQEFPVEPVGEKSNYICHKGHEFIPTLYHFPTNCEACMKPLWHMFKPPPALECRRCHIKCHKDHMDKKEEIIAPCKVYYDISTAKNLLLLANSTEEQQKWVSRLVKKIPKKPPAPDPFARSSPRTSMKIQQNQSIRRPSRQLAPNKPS

[7] = target: EKC/KEOPS complex subunit BUD32 (Saccharomyces cerevisiae S288c) (UniProt P53323); experiment: Percent residual PiD261 activity in the presence of 10uM inhibitor
Sequence of EKC/KEOPS complex subunit BUD32 (Saccharomyces cerevisiae S288c) (P53323 whole entry, one chain of several): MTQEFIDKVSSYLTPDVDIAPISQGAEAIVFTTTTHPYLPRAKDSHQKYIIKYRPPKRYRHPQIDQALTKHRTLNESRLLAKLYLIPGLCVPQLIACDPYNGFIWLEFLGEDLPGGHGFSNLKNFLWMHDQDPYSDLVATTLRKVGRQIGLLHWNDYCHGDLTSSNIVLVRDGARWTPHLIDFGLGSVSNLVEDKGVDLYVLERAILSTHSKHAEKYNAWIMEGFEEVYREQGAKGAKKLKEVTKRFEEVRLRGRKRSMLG

[8] = Inhibition of V66A-mutated CK2 holoenzyme; set-up: species or system Zea mays
[9] = target: Mitogen-activated protein kinase 1 (Homo sapiens) (UniProt P28482); experiment: Percent residual ERK2 activity in the presence of 10uM inhibitor
[10] = target: Ribosomal protein S6 kinase alpha-1 (Homo sapiens) (UniProt Q15418); experiment: Percent residual MAPKAPK1 activity in the presence of 10uM inhibitor
Sequence of Ribosomal protein S6 kinase alpha-1 (Homo sapiens) (Q15418 whole entry): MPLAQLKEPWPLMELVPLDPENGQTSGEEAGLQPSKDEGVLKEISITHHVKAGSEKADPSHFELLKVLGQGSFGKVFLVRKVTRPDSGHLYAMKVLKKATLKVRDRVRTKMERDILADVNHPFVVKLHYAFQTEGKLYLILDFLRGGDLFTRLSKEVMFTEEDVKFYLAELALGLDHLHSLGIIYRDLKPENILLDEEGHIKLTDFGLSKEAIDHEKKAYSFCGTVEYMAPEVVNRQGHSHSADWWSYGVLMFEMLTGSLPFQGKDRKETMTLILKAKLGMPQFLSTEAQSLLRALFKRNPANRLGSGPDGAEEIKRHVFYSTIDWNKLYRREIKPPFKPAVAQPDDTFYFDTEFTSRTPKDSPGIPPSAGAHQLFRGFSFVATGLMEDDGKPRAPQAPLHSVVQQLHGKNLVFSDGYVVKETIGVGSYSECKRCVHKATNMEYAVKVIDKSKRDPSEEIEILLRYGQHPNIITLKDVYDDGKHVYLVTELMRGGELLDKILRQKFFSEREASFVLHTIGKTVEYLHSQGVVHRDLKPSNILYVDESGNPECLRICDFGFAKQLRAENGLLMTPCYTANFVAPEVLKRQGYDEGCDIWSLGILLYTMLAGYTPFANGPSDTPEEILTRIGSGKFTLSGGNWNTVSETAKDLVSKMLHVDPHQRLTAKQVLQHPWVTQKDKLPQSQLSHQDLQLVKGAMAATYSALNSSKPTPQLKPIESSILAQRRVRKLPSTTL

[11] = target: T1, Mitogen-activated protein kinase 12 (Homo sapiens) (UniProt P53778); experiment: Percent residual p38-gamma activity in the presence of 10uM inhibitor
T1 sequence (whole entry): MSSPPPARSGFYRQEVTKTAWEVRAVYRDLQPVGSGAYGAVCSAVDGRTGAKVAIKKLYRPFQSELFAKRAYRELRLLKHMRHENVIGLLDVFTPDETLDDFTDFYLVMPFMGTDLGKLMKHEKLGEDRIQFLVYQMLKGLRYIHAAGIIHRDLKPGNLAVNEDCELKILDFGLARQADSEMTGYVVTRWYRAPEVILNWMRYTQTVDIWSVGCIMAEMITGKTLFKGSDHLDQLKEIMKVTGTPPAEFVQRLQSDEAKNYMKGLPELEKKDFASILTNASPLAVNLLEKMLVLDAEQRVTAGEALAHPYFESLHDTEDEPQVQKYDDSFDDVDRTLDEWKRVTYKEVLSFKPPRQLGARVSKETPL

[12] = target: Mitogen-activated protein kinase 14 (Homo sapiens) (UniProt Q16539); experiment: Percent residual p38alpha activity in the presence of 10uM inhibitor
Sequence of Mitogen-activated protein kinase 14 (Homo sapiens) (Q16539 whole entry): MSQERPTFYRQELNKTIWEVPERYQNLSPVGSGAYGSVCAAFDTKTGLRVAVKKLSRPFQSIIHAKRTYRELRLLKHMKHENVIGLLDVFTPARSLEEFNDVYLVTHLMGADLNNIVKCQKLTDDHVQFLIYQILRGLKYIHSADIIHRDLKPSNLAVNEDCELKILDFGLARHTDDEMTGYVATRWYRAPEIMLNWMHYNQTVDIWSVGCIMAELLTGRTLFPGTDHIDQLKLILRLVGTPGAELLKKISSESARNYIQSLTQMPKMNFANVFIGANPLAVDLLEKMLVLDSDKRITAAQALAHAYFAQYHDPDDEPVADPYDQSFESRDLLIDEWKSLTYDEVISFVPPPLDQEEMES

[13] = target: T2, Serine/threonine-protein kinase Chk1 (Homo sapiens) (UniProt O14757); experiment: Percent residual CHK1 activity in the presence of 10uM inhibitor
T2 sequence (whole entry): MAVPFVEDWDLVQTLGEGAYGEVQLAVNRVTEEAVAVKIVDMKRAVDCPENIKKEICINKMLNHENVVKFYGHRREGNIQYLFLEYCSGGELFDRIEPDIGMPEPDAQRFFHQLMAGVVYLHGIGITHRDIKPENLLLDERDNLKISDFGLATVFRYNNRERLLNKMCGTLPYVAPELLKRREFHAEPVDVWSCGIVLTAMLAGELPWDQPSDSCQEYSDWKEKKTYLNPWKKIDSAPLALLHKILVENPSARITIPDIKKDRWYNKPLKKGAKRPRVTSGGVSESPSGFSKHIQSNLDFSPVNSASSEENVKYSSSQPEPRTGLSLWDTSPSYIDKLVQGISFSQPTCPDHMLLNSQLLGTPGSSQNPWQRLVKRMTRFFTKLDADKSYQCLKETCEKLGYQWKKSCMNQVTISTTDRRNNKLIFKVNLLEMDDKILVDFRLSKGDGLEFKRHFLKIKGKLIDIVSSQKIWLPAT

[14] = target: MAP kinase-activated protein kinase 2 (Homo sapiens) (UniProt P49137); experiment: Percent residual MAPKAPK2 activity in the presence of 10uM inhibitor
Sequence of MAP kinase-activated protein kinase 2 (Homo sapiens) (P49137 whole entry, looked up): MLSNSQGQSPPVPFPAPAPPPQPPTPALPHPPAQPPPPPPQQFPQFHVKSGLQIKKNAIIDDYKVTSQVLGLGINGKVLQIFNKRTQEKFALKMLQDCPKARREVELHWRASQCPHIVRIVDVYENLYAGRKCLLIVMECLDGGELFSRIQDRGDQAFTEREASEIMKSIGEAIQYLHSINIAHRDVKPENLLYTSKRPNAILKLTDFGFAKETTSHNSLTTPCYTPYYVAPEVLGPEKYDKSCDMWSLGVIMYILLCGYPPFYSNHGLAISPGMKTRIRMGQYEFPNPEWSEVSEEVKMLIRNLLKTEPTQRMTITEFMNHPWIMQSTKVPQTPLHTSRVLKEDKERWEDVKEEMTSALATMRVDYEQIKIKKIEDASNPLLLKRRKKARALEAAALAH

[15] = target: Tyrosine-protein kinase SYK (Homo sapiens) (UniProt P43405); experiment: Percent residual Syk activity in the presence of 10uM inhibitor
[16] = target: Platelet-derived growth factor receptor beta (Homo sapiens) (UniProt P09619); experiment: Percent residual PDGFRbeta activity in the presence of 10uM inhibitor
[17] = target: Dual specificity tyrosine-phosphorylation-regulated kinase 1A (Homo sapiens, UniProt Q13627); experiment: Inhibition of DYRK1a
[18] = target: Tyrosine-protein kinase ABL1 (Homo sapiens) (UniProt P00519); experiment: Percent residual Abl activity in the presence of 10uM inhibitor
[19] = target: Insulin receptor (Homo sapiens) (UniProt P06213); experiment: Percent residual Ins-R activity in the presence of 10uM inhibitor
[20] = target: RAF proto-oncogene serine/threonine-protein kinase (Homo sapiens) (UniProt P04049); experiment: Percent residual c-Raf-1 activity in the presence of 10uM inhibitor
[21] = target: cAMP-dependent protein kinase (PKA) (Homo sapiens, UniProt P22694+P17612+P22612); experiment: Inhibition of PKA; type: protein assay
[22] = target: Vascular endothelial growth factor receptor 2 (Homo sapiens) (UniProt P35968); experiment: Percent residual KDR activity in the presence of 10uM inhibitor
[23] = target: Angiopoietin-1 receptor (Homo sapiens) (UniProt Q02763); experiment: Percent residual Tek activity in the presence of 10uM inhibitor
[24] = target: Receptor tyrosine-protein kinase erbB-2 (Homo sapiens) (UniProt P04626); experiment: Percent residual Her-2 activity in the presence of 10uM inhibitor
[25] = target: Proto-oncogene tyrosine-protein kinase Src (Homo sapiens) (UniProt P12931); experiment: Percent residual c-Src activity in the presence of 10uM inhibitor
[26] = target: Fibroblast growth factor receptor 1 (Homo sapiens) (UniProt P11362); experiment: Percent residual FGFR1 activity in the presence of 10uM inhibitor
[27] = target: Tyrosine-protein kinase Lck (Homo sapiens, UniProt P06239); experiment: Inhibition of Lck
[28] = target: Vascular endothelial growth factor receptor 3 (Homo sapiens) (UniProt P35916); experiment: Percent residual Flt-4 activity in the presence of 10uM inhibitor
[29] = target: Phosphatidylinositol 4,5-bisphosphate 3-kinase catalytic subunit gamma isoform (Homo sapiens, UniProt P48736); experiment: Inhibition of PI3K gamma
[30] = target: Hepatocyte growth factor receptor (Homo sapiens) (UniProt P08581); experiment: Percent residual c-Met activity in the presence of 10uM inhibitor
[31] = target: Vascular endothelial growth factor receptor 1 (Homo sapiens) (UniProt P17948); experiment: Percent residual Flt-1 activity in the presence of 10uM inhibitor
[32] = target: Mast/stem cell growth factor receptor Kit (Homo sapiens) (UniProt P10721); experiment: Percent residual c-Kit activity in the presence of 10uM inhibitor
[33] = target: Glycogen synthase kinase-3 beta (Homo sapiens, UniProt P49841); experiment: Inhibition of GSK3-beta

Sequence of Ribosomal protein S6 kinase beta-1 (Homo sapiens) (P23443 whole entry, looked up): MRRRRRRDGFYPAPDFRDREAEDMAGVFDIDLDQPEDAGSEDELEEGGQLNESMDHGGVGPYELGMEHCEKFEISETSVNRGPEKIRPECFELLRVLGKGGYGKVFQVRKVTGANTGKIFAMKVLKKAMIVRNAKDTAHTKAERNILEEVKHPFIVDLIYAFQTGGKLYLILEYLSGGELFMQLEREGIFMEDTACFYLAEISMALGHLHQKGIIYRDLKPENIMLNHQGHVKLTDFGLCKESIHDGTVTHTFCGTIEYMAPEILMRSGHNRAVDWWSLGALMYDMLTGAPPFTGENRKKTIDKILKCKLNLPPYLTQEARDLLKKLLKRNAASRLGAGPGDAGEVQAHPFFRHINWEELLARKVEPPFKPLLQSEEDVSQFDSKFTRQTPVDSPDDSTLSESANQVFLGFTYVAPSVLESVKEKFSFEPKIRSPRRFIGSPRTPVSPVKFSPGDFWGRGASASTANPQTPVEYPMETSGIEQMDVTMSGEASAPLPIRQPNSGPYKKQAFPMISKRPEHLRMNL

SMILES | Activity [1] | Activity [2] | Activity [3] | Activity [4] | Activity [5] | Activity [6] | Activity [7] | pIC50 [8] | Activity [9] | Activity [10] | Activity [11] | Activity [12] | Activity [13] | Activity [14] | Activity [15] | also measured
O=c1cc(-c2ccc(O)cc2)oc2cc(O)cc(O)c12 [APIGENIN] | 65% | 82% | 59% | 57% | 18% | 88% | 103% | 5.00 | 83% | 86% | 102% | 101% | 67% | 91% | 95% | –
Cc1cc(O)c2c(c1)C(=O)c1cc(O)cc(O)c1C2=O [EMODIN] | 84% | 82% | 90% | 89% | 75% | 90% | 90% | 4.42 | 88% | 103% | 92% | 92% | 89% | 82% | 96% | –
O=C(O)Cc1c2ccccc2n2c1[nH]c(=O)c1ccccc12 | 84% | 84% | 97% | 92% | 91% | 94% | 100% | 4.57 | 92% | 91% | 96% | 101% | 90% | 70% | 87% | Activity [16]: 80%; pIC50 [17]: 5.10; Activity [18]: 80%; Activity [19]: 80%; Activity [20]: 80%; IC50 [21]: 16 µM; Activity [22]: 80%; Activity [23]: 80%; Activity [24]: 80%; Activity [25]: 80%; Activity [26]: 80%; pIC50 [27]: 4.96; Activity [28]: 80%; pIC50 [29]: < 3.70; Activity [30]: 80%; Activity [31]: 80%; Activity [32]: 80%; pIC50 [33]: 4.85
